This passage reports IC50 results from patent US10696692B2, “Amido-benzyl sulfone and sulfoxide derivates” (Forma TM, LLC, priority 2012, dated 2020).

In one experiment the target is NAMPT (Homo sapiens (Human), UniProt P43490). Description: Assay 1: Biochemical Inhibition Assay (NAMPT enzymatic reaction, NMN quantified by mass spectrometry).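 Also: recombinant His-tagged human NAMPT preincubated with compound 15 min, then reacted 30 min at rt with 1 µM NAM, 100 µM PRPP, 2.5 mM ATP, NMN product read by RapidFire MS, normalized to L-Cystathionine internal standard.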
Sequence of NAMPT (P43490 whole entry): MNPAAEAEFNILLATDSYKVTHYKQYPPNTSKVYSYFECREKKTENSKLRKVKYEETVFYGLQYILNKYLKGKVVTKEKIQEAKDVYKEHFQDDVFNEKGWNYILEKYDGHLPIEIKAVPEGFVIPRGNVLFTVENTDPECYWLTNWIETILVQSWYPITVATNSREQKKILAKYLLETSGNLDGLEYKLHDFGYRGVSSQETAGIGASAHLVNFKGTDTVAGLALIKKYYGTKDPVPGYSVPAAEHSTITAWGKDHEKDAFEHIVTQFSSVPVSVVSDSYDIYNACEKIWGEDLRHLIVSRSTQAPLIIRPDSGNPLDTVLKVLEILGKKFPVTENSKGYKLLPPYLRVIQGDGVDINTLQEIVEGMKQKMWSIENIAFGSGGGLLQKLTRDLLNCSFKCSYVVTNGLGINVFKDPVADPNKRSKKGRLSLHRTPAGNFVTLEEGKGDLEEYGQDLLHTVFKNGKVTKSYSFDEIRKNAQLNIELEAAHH
The subject of the next experiment is A2780 cells. Description: Assay 2: In-Vitro Cell Proliferation Assay (A2780 cells, SRB readout, 72 hours).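 Also: viable cells counted via sulforhodamine B staining, absorbance at 570 nm, after 72 h exposure at 37 °C, DMSO 0.1% as control, media-only background subtracted.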 The class given is cell-based. Particulars: read-out: Cell Proliferation (IC50).
Where [1] appears, read: Homo sapiens, A2780, 72 h, A2780 cells, 72 hours, SRB.

Like-named read-outs stand apart in the source and are kept apart here.

For the compound `CN1CC2CN(S(=O)(=O)c3ccc(CNC(=O)c4ccc5nccn5c4)cc3)CC(C1)O2` (racemic) [Example 142, cis-Imidazo[1,2-a]pyridine-6-carboxylic acid 4-(7-methyl-9-oxa-3,7-diaza-bicyclo[3.3.1]nonane-3-sulfonyl)-benzylamide], the IC50 was found to be 113 nM at NAMPT (read-out: Biochemical (IC50)) and 28.6 nM with A2780 cells (setting [1]).

Take `CN1CC2CCN(S(=O)(=O)c3ccc(CNC(=O)c4ccc5nccn5c4)cc3)C2C1` (racemic) [Example 143, cis-Imidazo[1,2-a]pyridine-6-carboxylic acid 4-(5-methyl-hexahydro-pyrrolo[3,4-b]pyrrole-1-sulfonyl)-benzylamide]: the IC50 worked out at 100 nM on NAMPT (read-out: Biochemical (IC50)) and 20.4 nM in the experiment with A2780 cells (setting [1]).

For the compound `CN1CCC2CN(S(=O)(=O)c3ccc(CNC(=O)c4ccc5nccn5c4)cc3)CC21` (racemic) [Example 144, cis-Imidazo[1,2-a]pyridine-6-carboxylic acid 4-(1-methyl-hexahydro-pyrrolo[3,4-b]pyrrole-5-sulfonyl)-benzylamide], the IC50 at NAMPT (read-out: Biochemical (IC50)) was determined as 54 nM; in the experiment with A2780 cells (setting [1]), 9.6 nM.

In the case of `O=C(NCc1ccc(S(=O)(=O)N2C[C@@H]3CC(F)(F)[C@@H]3C2)cc1)c1ccc2nccn2c1` (racemic) [Example 147, cis-Imidazo[1,2-a]pyridine-6-carboxylic acid 4-(6,6-difluoro-3-aza-bicyclo[3.2.0]heptane-3-sulfonyl)-benzylamide], the figures for the IC50 at NAMPT (read-out: Biochemical (IC50)) and in the experiment with A2780 cells (setting [1]) were 13.7 nM and 12.5 nM, respectively.

With `O=C(NCc1ccc(S(=O)(=O)C2CCCOC2)cc1)c1cc2cnccc2[nH]1` (racemic) [Example 154, 1H-Pyrrolo[3,2-c]pyridine-2-carboxylic acid 4-(tetrahydro-pyran-3-sulfonyl)-benzylamide], the IC50 at NAMPT (read-out: Biochemical (IC50)) was 33.1 nM; in the experiment with A2780 cells (setting [1]), 18.5 nM.

With `O=C(NCc1ccc(S(=O)(=O)C2CCCOC2)cc1)c1cnc2[nH]ncc2c1` (racemic) [Example 155, 1H-Pyrazolo[3,4-b]pyridine-5-carboxylic acid 4-(tetrahydro-pyran-3-sulfonyl)-benzylamide], the IC50 at NAMPT (read-out: Biochemical (IC50)) is 219 nM; in the experiment with A2780 cells (setting [1]), 176 nM.

In the case of `CC1(O)CCN(S(=O)(=O)c2ccc(CNC(=O)c3ccc4nccn4c3)cc2)C1` (racemic) [Example 161, Imidazo[1,2-a]pyridine-6-carboxylic acid 4-(3-hydroxy-3-methyl-pyrrolidine-1-sulfonyl)-benzylamide], the figures for the IC50 on NAMPT (read-out: Biochemical (IC50)) and in the experiment with A2780 cells (setting [1]) were 52.1 nM and 47.2 nM, respectively.

Take `CN1C2COCC1CN(S(=O)(=O)c1ccc(CNC(=O)c3ccc4nccn4c3)cc1)C2` (racemic) [Example 162, cis-Imidazo[1,2-a]pyridine-6-carboxylic acid 4-(9-methyl-3-oxa-7,9-diaza-bicyclo[3.3.1]nonane-7-sulfonyl)-benzylamide]: the IC50 on NAMPT (Biochemical (IC50)) came out at 122 nM; in the experiment with A2780 cells (Homo sapiens, A2780, 72 h), 59.8 nM.

For `CC(=O)N1C[C@@H]2C[C@H]1CN2S(=O)(=O)c1ccc(CNC(=O)c2ccc3nccn3c2)cc1` (racemic) [Example 163, cis-Imidazo[1,2-a]pyridine-6-carboxylic acid 4-(5-acetyl-2,5-diaza-bicyclo[2.2.1]heptane-2-sulfonyl)-benzylamide], the IC50 on NAMPT (read-out: Biochemical (IC50)) amounted to 81.5 nM; in the experiment on A2780 cells (setting [1]), 58.1 nM.

For `O=C(NCc1ccc(S(=O)(=O)N2CC3CC2CC3F)cc1)c1ccc2nccn2c1` (racemic) [Example 164, cis-Imidazo[1,2-alpyridine-6-carboxylic acid 4-(5-fluoro-2-aza-bicyclo[2.2.1]heptane-2-sulfonyl)-benzylamide], the IC50 is 8.1 nM at NAMPT (read-out: Biochemical (IC50)) and 12.4 nM in the experiment on A2780 cells (setting [1]).

Take `CN1C[C@H]2C[C@@H](C1)N(S(=O)(=O)c1ccc(CNC(=O)c3ccc4nccn4c3)cc1)C2` (racemic) [Example 165, cis-Imidazo[1,2-a]pyridine-6-carboxylic acid 4-(3-methyl-3,6-diaza-bicyclo[3.2.1]octane-6-sulfonyl)-benzylamide]: the figures for the IC50 on NAMPT (read-out: Biochemical (IC50)) and in the experiment on A2780 cells (setting [1]) were 95.8 nM and 22 nM, respectively.

For `O=C(NCc1ccc(S(=O)(=O)N2CC[C@H]3C[C@H]32)cc1)c1ccc2nccn2c1` (racemic) [Example 166, cis-Imidazo[1,2-a]pyridine-6-carboxylic acid 4-(2-aza-bicyclo[3.1.0]hexane-2-sulfonyl)-benzylamide], the IC50 was determined as 17.2 nM at NAMPT (read-out: Biochemical (IC50)) and 9.6 nM in the experiment on A2780 cells (setting [1]).

For the compound `O=C(NCc1ccc(S(=O)(=O)N2CCOC3(CCOC3)C2)cc1)c1ccc2nccn2c1` (racemic) [Example 167, Imidazo[1,2-a]pyridine-6-carboxylic acid 4-(2,6-dioxa-9-aza-spiro[4.5]decane-9-sulfonyl)-benzylamide], the IC50 was found to be 23.7 nM on NAMPT (read-out: Biochemical (IC50)) and 8.8 nM with A2780 cells (setting [1]).

On to `O=C(NCc1ccc(S(=O)(=O)C2CCCOC2)cc1)c1cc2ccncc2o1` (racemic) [Example 168, Furo[2,3-c]pyridine-2-carboxylic acid 4-(tetrahydro-pyran-3-sulfonyl)-benzylamide], for which the IC50 worked out at 30.4 nM on NAMPT (read-out: Biochemical (IC50)) and 50.3 nM in the experiment with A2780 cells (setting [1]).

In the case of `O=C(NCc1ccc(S(=O)(=O)C2CCCOC2)cc1)c1ccc2nccn2c1` (racemic) [Example 169, Imidazo[1,2-a]pyridine-6-carboxylic acid 4-(tetrahydro-pyran-3-sulfonyl)-benzylamide], the IC50 at NAMPT (read-out: Biochemical (IC50)) turned out to be 32.9 nM; with A2780 cells (setting [1]), 19.9 nM.

Consider `O=C(NCc1ccc(S(=O)(=O)N2C[C@@H]3C[C@H]2CO3)cc1)c1cnc2[nH]ncc2c1` (racemic) [Example 172, cis-1H-Pyrazolo[3,4-b]pyridine-5-carboxylic acid 4-(2-oxa-5-aza-bicyclo[2.2.1]heptane-5-sulfonyl)-benzylamide], for which the results for the IC50 on NAMPT (read-out: Biochemical (IC50)) and with A2780 cells (setting [1]) were 211 nM and 354 nM, respectively.

For the compound `O=C(NCc1ccc(S(=O)(=O)N2C[C@H]3CCC(F)(F)[C@H]3C2)cc1)c1cnc2[nH]ncc2c1` (racemic) [Example 176, cis-1H-Pyrazolo[3,4-b]pyridine-5-carboxylic acid 4-(4,4-difluoro-hexahydro-cyclopenta[c]pyrrole-2-sulfonyl)-benzylamide], the IC50 on NAMPT (read-out: Biochemical (IC50)) is 37.9 nM; in the experiment with A2780 cells (setting [1]), 22.7 nM.

Consider `O=C(NCc1ccc(S(=O)(=O)N2CC3CC(F)(F)CC3C2)cc1)c1cnc2[nH]ncc2c1` (racemic) [Example 177, cis-1H-Pyrazolo[3,4-b]pyridine-5-carboxylic acid 4-(5,5-difluoro-hexahydro-cyclopenta[c]pyrrole-2-sulfonyl)-benzylamide], for which the IC50 was found to be 20.3 nM at NAMPT (read-out: Biochemical (IC50)) and 105 nM in the experiment on A2780 cells (setting [1]).

On to `O=C(NCc1ccc(S(=O)(=O)N2C[C@@H]3CCO[C@@H]3C2)cc1)c1cnc2[nH]ncc2c1` (racemic) [Example 178, cis-1H-Pyrazolo[3,4-b]pyridine-5-carboxylic acid 4-(hexahydro-furo[2,3-c]pyrrole-5-sulfonyl)-benzylamide], for which the IC50 is 133 nM at NAMPT (read-out: Biochemical (IC50)) and 172 nM in the experiment with A2780 cells (setting [1]).

For `CC(C)CN1CCC([S+]([O-])c2ccc(CNC(=O)c3cnc4nccn4c3)cc2)CC1` (racemic) [Example 179, Imidazo[1,2-a]pyrimidine-6-carboxylic acid 4-(1-isobutyl-piperidine-4-sulfinyl)-benzylamide], the figures for the IC50 on NAMPT (read-out: Biochemical (IC50)) and with A2780 cells (setting [1]) were 7.6 nM and 31.1 nM, respectively.

With `CC(C)CN1CCC([S+]([O-])c2ccc(CNC(=O)c3cnc4[nH]ncc4c3)cc2)CC1` (racemic) [Example 181, 1H-Pyrazolo[3,4-b]pyridine-5-carboxylic acid 4-(1-isobutyl-piperidine-4-sulfinyl)-benzylamide], the IC50 at NAMPT (read-out: Biochemical (IC50)) amounted to 130 nM; with A2780 cells (setting [1]), 23 nM.

As for `CC(C)CN1CCC([S+]([O-])c2ccc(CNC(=O)c3cc4cnccc4[nH]3)cc2)CC1` (racemic) [Example 182, 1H-Pyrrolo[3,2-c]pyridine-2-carboxylic acid 4-(l-isobutyl-piperidine-4-sulfinyl)-benzylamide], the IC50 on NAMPT (read-out: Biochemical (IC50)) amounted to 26.3 nM; with A2780 cells (setting [1]), 5.6 nM.

For `CC(C)(C)OC(=O)N1CCCC12CCCN(S(=O)(=O)c1ccc(CNC(=O)c3ccc4nccn4c3)cc1)CC2` (racemic) [Example 183], the IC50 at NAMPT (read-out: Biochemical (IC50)) was 8.99 nM; in the experiment with A2780 cells (setting [1]), 0.76 nM.

As for `CC(C)CN1CCC([S+]([O-])c2ccc(CNC(=O)c3ccc4nccn4c3)cc2)CC1` (racemic) [Example 187, N-(4-(1-isobutylpiperidin-4-ylsulfinyl)benzyl)H-imidazo[1,2-a]pyridine-6-carboxamide], the IC50 on NAMPT (read-out: Biochemical (IC50)) is 14.2 nM; in the experiment with A2780 cells (setting [1]) it was 5.8 nM.

For `O=C(NCc1ccc(S(=O)(=O)N2CC3CCC(F)(F)C3C2)cc1)c1ccc2nccn2c1` (single isomer, unassigned) [Example 73, cis-Imidazo[1,2-a]pyridine-6-carboxylic acid 4-(4,4-difluoro-hexahydro-cyclopenta[c]pyrrole-2-sulfonyl)-benzylamide], the IC50 came to 3 nM on NAMPT (read-out: Biochemical (IC50)) and 0.8 nM with A2780 cells (A2780 cells, 72 hours, SRB).

Turning to `O=C(NCc1ccc(S(=O)(=O)N2CC3CCC(F)(F)C3C2)cc1)c1ccc2nccn2c1` (single isomer, unassigned) [Example 74, cis-Imidazo[1,2-a]pyridine-6-carboxylic acid 4-(4,4-difluoro-hexahydro-cyclopenta[c]pyrrole-2-sulfonyl)-benzylamide], the IC50 was 5 nM on NAMPT (read-out: Biochemical (IC50)) and 2.7 nM with A2780 cells (A2780 cells, 72 hours, SRB).

Regarding `O=C(NCc1ccc(S(=O)(=O)N2CCCCC2)cc1)c1cn2[nH]ccc2n1` [Example 1, 5H-Imidazo[1,2-b]pyrazole-2-carboxylic acid 4-(piperidine-1-sulfonyl)-benzylamide], the IC50 on NAMPT (read-out: Biochemical (IC50)) came to 8100 nM; with A2780 cells (setting [1]), 19100 nM.

With `O=C(NCc1ccc(S(=O)(=O)N2CC3CCC(C2)O3)cc1)c1cc2cnccc2[nH]1` [Example 2, 1H-Pyrrolo[3,2-c]pyridine-2-carboxylic acid 4-(8-oxa-3-aza-bicyclo[3.2.1]octane-3-sulfonyl)-benzylamide], the IC50 is 28.1 nM on NAMPT (read-out: Biochemical (IC50)) and 13.8 nM in the experiment with A2780 cells (setting [1]).
